Paper PMC7292393 (PLoS ONE, 2020)
Several values for one entry are separate records, joined by “and”; a condition that tells them apart may be missing. Equal entries are not always repeated.

Assays:
human SUMO1 [1] = target: T1, human SUMO1 (Homo sapiens, UniProt P63165); test: SPR secondary screen / dose-dependent binding; parameters: key to SPR Screens 2°: ✓: dose-dependent saturation kinetics; ×: no indication of saturation kinetics; conditions: for saturation binding in SPR secondary screen: Fig 2A-H; for SPR Screens 2°: five concentrations 31.25-500 μM; for Kd: one-site hyperbola fit, 31.25-500 μM flavonoid, Fig 2A-C, read-out: Kd (SPR secondary screen)
T1 construct: encoding amino acids 1–97 of mature human SUMO1; host or cells: E. coli BL21 Rosetta (DE3)

human SUMO1 [2] = target: T1, human SUMO1; test: Differential scanning fluorimetry (DSF) thermal shift; format: binding; parameters: key to DSF Tm SUMO1 + Flavonoid (class): UF: unfolded protein; ND: melting curve could not be determined; conditions: 2 μM SUMO1, 300 μM flavonoid; for DSF Tm SUMO1 + Flavonoid: mean and SEM, n = 5, SUMO1 + DMSO 59.63 ± 0.03
human SUMO1 [3] = target: T1, human SUMO1; test: Surface plasmon resonance (SPR) primary screen; format: binding; conditions: for SPR Screens 1° / %RUmax: 500 μM flavonoid in DMSO; for SPR Screens 1°: cut-off of %RUmax of ~15; for interaction in SPR primary screen: 500 μM, %RUmax above threshold of ~15%; for %RUmax: SPR primary screen, (Mean RU/RUmax)*100;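 on all read-outs here: recombinant human SUMO1 amine-coupled to a sensor chip, blank activated and quenched reference flow cell, flavonoids injected 2 min then 1 min dissociation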
[4] = Precipitation in NMR samples; format: physicochemical; conditions: at 400 μM, dissolved in DMSO-d6, NMR sample
Description: All NMR experiments for 2D ^1H-^15N HSQC spectra were performed at 17°C on a Varian VNMR 500 MHz spectrometer equipped with a 5mm cryogenic triple resonance probe. Complex points 1024 × 128 and spectral widths of 14 × 38 ppm were used to record all the spectra. […] DMSO-d6 used as a cosolvent caused a slight shift (< ~0.8ppm) of resonance peaks. Therefore resonance assignments for ^15N-labeled SUMO1 residues were compared to the DMSO control treatment and normalized by a common factor. […] The resonance peak assignments were performed using data deposited in the Biological Resonance Data Bank (BMRB) under 25576 as reference. Chemical shift changes were characterized by calculating a weighted chemical shift difference as previously described. […] The chemical shift perturbation data from this work are deposited under BMRB ID 50128.

human SUMO1 [5] = target: T1, human SUMO1; test: Native-PAGE mobility shift; format: binding; conditions: SUMO1 ~40 μM, 300 μM flavonoid
Description: Recombinantly purified proteins (Saccharomyces cerevisiae SMT3, Saccharomyces cerevisiae Ulp1, and human SUMO1) were incubated with flavonoids (or DMSO vehicle control) for 30 min to 1 hr at 4°C. Samples were loaded onto 4–20% or 7.5% Mini-PROTEAN TGX Precast Protein Gels (Bio-Rad, Hercules, CA) and were run […] at 95 V for 4 hr 30 min at 4°C using a standard SDS-free loading buffer (pH 8.0) and Tris-glycine running buffer (pH 8.3). Immediately after electrophoresis, the gel was imaged to track migration of bright yellow flavonoid. Following this step, the gel was stained with Bio-Safe Coomassie (Bio-Rad, Hercules, CA) to detect the proteins.

T1 sequence (P63165 1-97): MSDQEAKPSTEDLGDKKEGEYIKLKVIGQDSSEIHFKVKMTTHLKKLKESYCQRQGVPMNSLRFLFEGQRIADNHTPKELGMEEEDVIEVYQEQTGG

Structure (SMILES) | saturation binding in SPR secondary screen (human SUMO1 [1]) | SPR Screens 2° (human SUMO1 [1]) | DSF Tm SUMO1 + Flavonoid (human SUMO1 [2]) [°C] | %RUmax (human SUMO1 [3]) [%] | electrophoretic mobility shift of human SUMO1 (human SUMO1 [5]) | SPR Screens 1° (human SUMO1 [3]) | interaction in SPR primary screen (human SUMO1 [3]) | effect on DSF thermogram / thermal stability of SUMO1 (human SUMO1 [2]) | Kd (human SUMO1 [1]) | DSF Tm SUMO1 + Flavonoid (class) (human SUMO1 [2]) | precipitation in NMR sample [4]
C[C@@H]1O[C@@H](Oc2c(-c3ccc(O)c(O)c3)oc3cc(O)cc(O)c3c2=O)[C@H](O)[C@H](O)[C@H]1O [Quercitrin] | – | – | 54.28 ± 0.19 | 14.2 | – | × (low or no binding activity) | – | significant thermal destabilization or unfolding | – | – | –
O=c1c(O)c(-c2ccc(O)c(O)c2)oc2cc(O)cc(O)c12 [Quercetin, 3,3',4',5,7-pentahydroxyflavone] | exhibited binding that approached saturation | ✓ | – | 14.5 | – | ✓ (%RUmax with binding activity above cut-off) | interacted with SUMO1 in the primary screen | cause unfolding of human SUMO1 | 41.7 µM and ~42 µM | UF | Precipitation
O=C(/C=C/c1ccc(O)cc1)c1ccc(O)cc1O [Isoliquiritigenin] | – | ✓ | – | – | – | – | interacted with SUMO1 in the primary screen | – | ~196 µM | – | –
O=C(/C=C/c1ccc(O)c(O)c1)c1ccc(O)cc1O [Butein] | failed to exhibit saturation binding | × | – | 74.2 | – | ✓ (%RUmax with binding activity above cut-off) | interacted with SUMO1 in the primary screen | – | – | – | –
COc1cc(O)c(Cc2ccccc2O)c(O)c1C(=O)/C=C/c1ccccc1 [C-benzylated chalcone] | – | – | – | -5.3 | – | × (low or no binding activity) | – | – | – | – | –
O=c1c(-c2ccc(O)c(O)c2)coc2cc(O)ccc12 [3’,4’,7-Trihydroxy-isoflavone, 3’,4’,7-Trihydroxyisoflavone] | failed to exhibit saturation binding | × | 33.28 ± 0.15 | 48.0 | – | ✓ (%RUmax with binding activity above cut-off) | interacted with SUMO1 in the primary screen | significant thermal destabilization or unfolding | – | – | –

Second part, led by results:

saturation binding in SPR secondary screen (human SUMO1 [1]) | SPR Screens 2° (human SUMO1 [1]) | DSF Tm SUMO1 + Flavonoid (human SUMO1 [2]) [°C] | %RUmax (human SUMO1 [3]) [%] | electrophoretic mobility shift of human SUMO1 (human SUMO1 [5]) | Structure (SMILES) | SPR Screens 1° (human SUMO1 [3]) | interaction in SPR primary screen (human SUMO1 [3]) | effect on DSF thermogram / thermal stability of SUMO1 (human SUMO1 [2]) | Kd (human SUMO1 [1]) | DSF Tm SUMO1 + Flavonoid (class) (human SUMO1 [2]) | precipitation in NMR sample [4]
failed to exhibit saturation binding | × | 59.24 ± 0.13 | 27.5 | – | O=C1C[C@@H](c2ccc(O)cc2)Oc2cc(O)cc(O)c21 [Naringenin] | ✓ (%RUmax with binding activity above cut-off) | interacted with SUMO1 in the primary screen | – | – | – | –
– | – | 58.93 ± 0.02 | 5.4 | – | C[C@@H]1O[C@@H](O[C@H]2[C@H](Oc3cc(O)c4c(c3)O[C@H](c3ccc(O)cc3)CC4=O)O[C@H](CO)[C@@H](O)[C@@H]2O)[C@H](O)[C@H](O)[C@H]1O [Naringin] | × (low or no binding activity) | – | – | – | – | –
– | – | 60.28 ± 0.09 | 12.6 | – | O=c1c(O)c(-c2ccc(O)cc2)oc2cc(O)cc(O)c12 [Kaempferol, 3,4′,5,7-tetrahydroxyflavone] | × (low or no binding activity) | – | little or no effect | – | – | Precipitation
– | – | 51.89 ± 0.68 | -47.8 | unable to detect a similar gel shift | O=c1cc(-c2ccc(O)c(O)c2)oc2cc(O)cc(O)c12 [Luteolin] | × (low or no binding activity) | – | significant thermal destabilization or unfolding | – | – | –
failed to exhibit saturation binding | × | – | 143.4 | – | Cc1c(O)cc2oc(-c3ccc(O)c(O)c3)c(O)c(=O)c2c1O [Pinoquercetin] | ✓ (%RUmax with binding activity above cut-off) | interacted with SUMO1 in the primary screen | – | – | – | –
failed to exhibit saturation binding | × | 56.95 ± 0.28 | 21.3 | – | O=c1c(O[C@@H]2O[C@H](CO)[C@@H](O)[C@H](O)[C@H]2O)c(-c2ccc(O)c(O)c2)oc2cc(O)cc(O)c12 [Quercetin 3-β-D-glucoside] | ✓ (%RUmax with binding activity above cut-off) | interacted with SUMO1 in the primary screen | – | – | – | –
– | – | 59.94 ± 0.07 | 8.5 | – | C[C@@H]1O[C@@H](O[C@H]2[C@H](Oc3cc(O)c(C(=O)CCc4ccc(O)cc4)c(O)c3)O[C@H](CO)[C@@H](O)[C@@H]2O)[C@H](O)[C@H](O)[C@H]1O [Naringin dihydrochalcone] | × (low or no binding activity) | – | – | – | – | –
